PMC8359193, “Summary of reference chemicals evaluated by the fish short‐term reproduction assay, OECD TG229, using Japanese Medaka, Oryzias latipes” (Journal of Applied Toxicology, 2021)

System: Japanese medaka (Oryzias latipes)
Assay: Fish short-term reproduction assay (FSTRA, OECD TG229), 21-day flow-through exposure
Details: for Fertility rate (%) / Mortality (%) Female / Mortality (%) Male / Number of fertilized eggs / Number of total eggs / SSC Female / SSC Male / VTG (ng/mg of liver) Female / VTG (ng/mg of liver) Male: 21 days; for GSI Female / GSI Male / HSI Female / HSI Male / Length Female / Length Male / Weight Female / Weight Male: at completion of exposure; for effect on fecundity (number of total eggs), in words: within the test concentrations
Procedure, shortened: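 Run to OECD TG229: mature NIES-R medaka pairs (3♂/3♀ per vessel, 4 vessels per treatment plus dilution water control) were dosed by continuous flow-through for 21 days. Test concentrations were spaced 2- to 5-fold. Daily spawned eggs were counted under the microscope for fertilized versus unfertilized.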

CC(=O)N1CCN(c2ccc(OCC3COC(Cn4ccnc4)(c4ccc(Cl)cc4Cl)O3)cc2)CC1 (centres unmarked) [KCZ, Ketoconazole]
effect on male SSC, in words (21-day exposure): statistical significance
LOEC for decrease of VTG in females (hepatic VTG, 21-day exposure, measured conc.): 233 µg/L
Fertility rate (%) (measured conc. 105 μg/L): 91%
Mortality (%) Female (measured conc. 105 μg/L): 0%
Mortality (%) Male (measured conc. 105 μg/L): 0%
Number of fertilized eggs (measured conc. 105 μg/L): 22
Number of total eggs (measured conc. 105 μg/L): 24 ± 1.1 /female/day
SSC Female (measured conc. 105 μg/L): 0 ± 0
SSC Male (measured conc. 105 μg/L): 82 ± 10
VTG (ng/mg of liver) Female (measured conc. 105 μg/L): 618 ± 81 ng/mg of liver
VTG (ng/mg of liver) Male (measured conc. 105 μg/L): 1.4 ± 0.3 ng/mg of liver
GSI Female (measured conc. 105 μg/L): 11.6%
GSI Male (measured conc. 105 μg/L): 1.08%
HSI Female (measured conc. 105 μg/L): 4.2%
HSI Male (measured conc. 105 μg/L): 1.9%
Length Female (measured conc. 105 μg/L): 33.2 mm
Length Male (measured conc. 105 μg/L): 32.7 mm
Weight Female (measured conc. 105 μg/L): 387 mg
Weight Male (measured conc. 105 μg/L): 381 mg
Fertility rate (%) (measured conc. 233 μg/L): 89%
Mortality (%) Female (measured conc. 233 μg/L): 0%
Mortality (%) Male (measured conc. 233 μg/L): 0%
Number of fertilized eggs (measured conc. 233 μg/L): 18
Number of total eggs (measured conc. 233 μg/L): 20 ± 1.6 /female/day
SSC Female (measured conc. 233 μg/L): 0 ± 0
SSC Male (measured conc. 233 μg/L): 116 ± 25
VTG (ng/mg of liver) Female (measured conc. 233 μg/L): 542 ± 353 ng/mg of liver
VTG (ng/mg of liver) Male (measured conc. 233 μg/L): 1.3 ± 0.1 ng/mg of liver
GSI Female (measured conc. 233 μg/L): 12.0%
GSI Male (measured conc. 233 μg/L): 1.26%
HSI Female (measured conc. 233 μg/L): 8.8%
HSI Male (measured conc. 233 μg/L): 3.8%
Length Female (measured conc. 233 μg/L): 33.3 mm
Length Male (measured conc. 233 μg/L): 33.3 mm
Weight Female (measured conc. 233 μg/L): 419 mg
Weight Male (measured conc. 233 μg/L): 416 mg
Fertility rate (%) (measured conc. 405 μg/L): 81%
Mortality (%) Female (measured conc. 405 μg/L): 8%
Mortality (%) Male (measured conc. 405 μg/L): 0%
Number of fertilized eggs (measured conc. 405 μg/L): 9.0
Number of total eggs (measured conc. 405 μg/L): 11 ± 4.4 /female/day
SSC Female (measured conc. 405 μg/L): 0 ± 0
SSC Male (measured conc. 405 μg/L): 91 ± 13
VTG (ng/mg of liver) Female (measured conc. 405 μg/L): 190 ± 123 ng/mg of liver
VTG (ng/mg of liver) Male (measured conc. 405 μg/L): 1.1 ± 0.1 ng/mg of liver
GSI Female (measured conc. 405 μg/L): 13.6%
GSI Male (measured conc. 405 μg/L): 0.98%
HSI Female (measured conc. 405 μg/L): 12.1%
HSI Male (measured conc. 405 μg/L): 3.5%
Length Female (measured conc. 405 μg/L): 32.6 mm
Length Male (measured conc. 405 μg/L): 32.4 mm
Weight Female (measured conc. 405 μg/L): 410 mg
Weight Male (measured conc. 405 μg/L): 404 mg
Fertility rate (%) (measured conc. 795 μg/L): 76%
Mortality (%) Female (measured conc. 795 μg/L): 42%
Mortality (%) Male (measured conc. 795 μg/L): 58%
Number of fertilized eggs (measured conc. 795 μg/L): 3.5
Number of total eggs (measured conc. 795 μg/L): 4.7 ± 0.9 /female/day
SSC Female (measured conc. 795 μg/L): 0 ± 0
SSC Male (measured conc. 795 μg/L): 80 ± 22
VTG (ng/mg of liver) Female (measured conc. 795 μg/L): 56 ± 95 ng/mg of liver
VTG (ng/mg of liver) Male (measured conc. 795 μg/L): 1.1 ± 0.1 ng/mg of liver
GSI Female (measured conc. 795 μg/L): 11.0%
GSI Male (measured conc. 795 μg/L): 1.35%
HSI Female (measured conc. 795 μg/L): 11.8%
HSI Male (measured conc. 795 μg/L): 5.1%
Length Female (measured conc. 795 μg/L): 31.7 mm
Length Male (measured conc. 795 μg/L): 30.2 mm
Weight Female (measured conc. 795 μg/L): 376 mg
Weight Male (measured conc. 795 μg/L): 282 mg
effect on fecundity (number of total eggs), in words (21-day exposure): significant difference from the control

C#C[C@]1(O)CC[C@H]2[C@@H]3CCC4=CC(=O)CC[C@@H]4[C@H]3CC[C@@]21CC [LNG, Levonorgestrel]
LOEC on female SSC (papillary process formation on anal fin) (21-day exposure, measured conc.): 42.2 ng/L
concentration at which female hepatic VTG was significantly decreased (highest concentration, 21-day exposure): 226 ng/L
GSI Male (male, measured conc. 7.3 ng/L): 0.82%
HSI Male (male, measured conc. 7.3 ng/L): 2.0%
Length Male (male, measured conc. 7.3 ng/L): 38.4 mm
Weight Male (male, measured conc. 7.3 ng/L): 610 mg
GSI Male (male, measured conc. 42.2 ng/L): 0.89%
HSI Male (male, measured conc. 42.2 ng/L): 2.2%
Length Male (male, measured conc. 42.2 ng/L): 38.8 mm
Weight Male (male, measured conc. 42.2 ng/L): 691 mg
GSI Male (male, measured conc. 226 ng/L): 0.76%
HSI Male (male, measured conc. 226 ng/L): 2.1%
Length Male (male, measured conc. 226 ng/L): 38.3 mm
Weight Male (male, measured conc. 226 ng/L): 610 mg
Fertility rate (%) (measured conc. 7.3 ng/L): 87%
Mortality (%) Female (measured conc. 7.3 ng/L): 0%
Mortality (%) Male (measured conc. 7.3 ng/L): 0%
Number of fertilized eggs (measured conc. 7.3 ng/L): 25
Number of total eggs (measured conc. 7.3 ng/L): 29 ± 5.8 /female/day
SSC Female (measured conc. 7.3 ng/L): 0 ± 0
SSC Male (measured conc. 7.3 ng/L): 112 ± 4.5
VTG (ng/mg of liver) Female (measured conc. 7.3 ng/L): 2,370 ± 207 ng/mg of liver
VTG (ng/mg of liver) Male (measured conc. 7.3 ng/L): 2.8 ± 4.1 ng/mg of liver
Fertility rate (%) (measured conc. 42.2 ng/L): 82%
Mortality (%) Female (measured conc. 42.2 ng/L): 8%
Mortality (%) Male (measured conc. 42.2 ng/L): 0%
Number of fertilized eggs (measured conc. 42.2 ng/L): 17
Number of total eggs (measured conc. 42.2 ng/L): 21 ± 3.9 /female/day
SSC Female (measured conc. 42.2 ng/L): 44 ± 10
SSC Male (measured conc. 42.2 ng/L): 121 ± 8.6
VTG (ng/mg of liver) Female (measured conc. 42.2 ng/L): 2,350 ± 673 ng/mg of liver
VTG (ng/mg of liver) Male (measured conc. 42.2 ng/L): 0.8 ± 0.3 ng/mg of liver
Fertility rate (%) (measured conc. 226 ng/L): 82%
Mortality (%) Female (measured conc. 226 ng/L): 0%
Mortality (%) Male (measured conc. 226 ng/L): 0%
Number of fertilized eggs (measured conc. 226 ng/L): 5.1
Number of total eggs (measured conc. 226 ng/L): 5.9 ± 5.2 /female/day
SSC Female (measured conc. 226 ng/L): 83 ± 5.4
SSC Male (measured conc. 226 ng/L): 116 ± 10
VTG (ng/mg of liver) Female (measured conc. 226 ng/L): 1,120 ± 561 ng/mg of liver
VTG (ng/mg of liver) Male (measured conc. 226 ng/L): 0.6 ± 0.1 ng/mg of liver
effect on fecundity (number of total eggs), in words (21-day exposure): significant difference from the control
